According to ChEMBL document CHEMBL4818998, “Melatonin derivatives combat with inflammation-related cancer by targeting the Main Culprit STAT3” (Eur J Med Chem, 2021):

Key:
[1] = test system: HCT-116; test: Antiproliferative activity against human HCT-116 cells assessed as inhibition of cell proliferation measured after 72 hrs by MTT assay; format: functional, cell-based; conditions: HCT-116, 72 h
[2] = test system: MCF7; test: Antiproliferative activity against human MCF7 cells assessed as inhibition of cell proliferation measured after 72 hrs by MTT assay; format: functional, cell-based; conditions: MCF7, 72 h
[3] = test system: HepG2; test: Antiproliferative activity against human HepG2 cells assessed as inhibition of cell proliferation measured after 72 hrs by MTT assay; format: functional, cell-based; conditions: HepG2, 72 h
[4] = test system: A549; test: Antiproliferative activity against human A549 cells assessed as inhibition of cell proliferation measured after 72 hrs by MTT assay; format: functional, cell-based; conditions: A549, 72 h
[5] = test system: MGC-803; test: Antiproliferative activity against human MGC-803 cells assessed as inhibition of cell proliferation measured after 72 hrs by MTT assay; format: functional, cell-based; conditions: MGC-803, 72 h
[6] = test system: SGC-7901; test: Antiproliferative activity against human SGC-7901 cells assessed as inhibition of cell proliferation measured after 72 hrs by MTT assay; format: functional, cell-based; conditions: SGC-7901, 72 h
[7] = test system: HGC-27; test: Antiproliferative activity against human HGC-27 cells assessed as inhibition of cell proliferation measured after 72 hrs by MTT assay; format: functional, cell-based; conditions: HGC-27, 72 h
[8] = test system: AGS; test: Antiproliferative activity against human AGS cells assessed as inhibition of cell proliferation measured after 72 hrs by MTT assay; format: functional, cell-based
[9] = test system: HCT-116; test: Induction of apoptosis in human HCT-116 cells assessed as viable cells at 20 uM measured after 48 hrs by Annexin V-FITC/PI staining based flow cytometry (reference value: 94.9%); format: functional; conditions: read-out: Activity
[10] = test system: HCT-116; test: Induction of apoptosis in human HCT-116 cells assessed as early apoptotic cells at 20 uM measured after 48 hrs by Annexin V-FITC/PI staining based flow cytometry (reference value: 2.14%); format: functional
[11] = test system: HCT-116; test: Induction of apoptosis in human HCT-116 cells assessed as late apoptotic cells at 20 uM measured after 48 hrs by Annexin V-FITC/PI staining based flow cytometry (reference value: 1.42%); format: functional
[12] = test system: HCT-116; test: Induction of apoptosis in human HCT-116 cells assessed as necrotic cells at 20 uM measured after 48 hrs by Annexin V-FITC/PI staining based flow cytometry (reference value: 1.5%); format: functional

Row | Structure (SMILES) | IC50 [1] | IC50 [2] | IC50 [3] | IC50 [4] | IC50 [5] | IC50 [6] | IC50 [7] | IC50 [8] | viability at 20 µM [9] | Activity [10] | Activity [11] | Activity [12]
1 | CN(c1ccccc1)c1ccccc1C(=O)NCCc1c[nH]c2ccccc12 | 17.2 µM | 19.6 µM | 21.3 µM | > 30 µM | 11.1 µM | > 30 µM | > 30 µM | 14.7 µM |  |  |  | 
2 | O=C(NCCc1c[nH]c2ccccc12)c1ccccc1NCCCCO | > 30 µM | > 30 µM | > 30 µM | > 30 µM | > 30 µM | > 30 µM | > 30 µM | > 30 µM |  |  |  | 
3 | O=C(NCCc1c[nH]c2ccccc12)c1ccccc1NCc1ccccc1 | > 30 µM | > 30 µM | > 30 µM | > 30 µM | > 30 µM | > 30 µM | 19.9 µM | > 30 µM |  |  |  | 
4 | COc1ccc2[nH]cc(CCNC(=O)c3ccccc3Nc3cccc(Cl)c3C)c2c1 | 20.4 µM | 25.3 µM | 21.9 µM | 17.8 µM | 9.8 µM | 27.9 µM | 19.9 µM | 16 µM |  |  |  | 
5 | O=C(NCCc1c[nH]c2ccccc12)c1ccccc1NC1CC1 | > 30 µM | > 30 µM | 28.4 µM | > 30 µM | > 30 µM | > 30 µM | 28.3 µM | > 30 µM |  |  |  | 
6 | Cc1cccc(Nc2ccccc2C(=O)NCCc2c[nH]c3ccc(O)cc23)c1C | 22.2 µM | 25.3 µM | 17 µM | > 30 µM | 16.5 µM | > 30 µM | 27 µM | 8.97 µM |  |  |  | 
7 | O=c1[nH]cc(F)c(=O)[nH]1 [FLUOROURACIL] | 6.1 µM | 13.2 µM | > 30 µM | > 30 µM | 29.2 µM | > 30 µM | > 30 µM | 11 µM | 81.3% | 5.54% | 10.4% | 2.69%
8 | CNc1ccccc1C(=O)NCCc1c[nH]c2ccccc12 | > 30 µM | > 30 µM | > 30 µM | > 30 µM | > 30 µM | > 30 µM | > 30 µM | > 30 µM |  |  |  | 
9 | CN(C)c1ccccc1C(=O)NCCc1c[nH]c2ccccc12 | 16.6 µM | > 30 µM | > 30 µM | > 30 µM | > 30 µM | > 30 µM | > 30 µM | 22.6 µM |  |  |  | 
10 | O=C(NCCc1c[nH]c2ccccc12)c1ccccc1NC1CCCCC1 | > 30 µM | > 30 µM | 28.6 µM | > 30 µM | > 30 µM | > 30 µM | 26.7 µM | > 30 µM |  |  |  | 
11 | O=C(NCCc1c[nH]c2ccccc12)c1ccccc1NC1CCCC1 | > 30 µM | > 30 µM | 28.8 µM | > 30 µM | > 30 µM | > 30 µM | 19.3 µM | > 30 µM |  |  |  | 
12 | COc1ccc(CCNc2ccccc2C(=O)NCCc2c[nH]c3ccccc23)cc1OC | > 30 µM | > 30 µM | > 30 µM | > 30 µM | > 30 µM | > 30 µM | > 30 µM | > 30 µM |  |  |  | 
13 | COc1ccc2[nH]cc(CCNC(=O)c3ccccc3Nc3ccccc3)c2c1 | 24.7 µM | 29 µM | > 30 µM | > 30 µM | 12.8 µM | > 30 µM | > 30 µM | > 30 µM |  |  |  | 
14 | Cc1ccc(S(=O)(=O)Nc2ccccc2C(=O)NCCc2c[nH]c3ccccc23)cc1 | > 30 µM | > 30 µM | > 30 µM | > 30 µM | > 30 µM | > 30 µM | > 30 µM | > 30 µM |  |  |  | 
15 | COc1ccc2[nH]cc(CCNC(C)=O)c2c1 [MELATONIN] | > 30 µM | > 30 µM | > 30 µM | > 30 µM | > 30 µM | > 30 µM | > 30 µM | > 30 µM |  |  |  | 
16 | Cc1cccc(Nc2ccccc2C(=O)NCCc2c[nH]c3ccccc23)c1C | 14.4 µM | > 30 µM | 21.7 µM | > 30 µM | > 30 µM | > 30 µM | > 30 µM | 16.6 µM |  |  |  | 
